We go through four molecules from patent US20100160268A1, “Isoflavonoid Analogs and their Metal Conjugates as Anti-Cancer Agents” (priority 2005, published 2010).

The subject of series [1] is MCF-7, T47D, BT20, MDA-MB231, PC3, BxPC3, COLO357 cancer cell lines. Kind of series: MTT assay, panel of breast, prostate and pancreatic cancer cell lines. It is filed as cell-based. The following applies: in words. As to the method:
(§1) The compounds were tested in multiple panels of breast (MCF-7, T47D, BT20 and MDA-MB231), prostate (PC3), and pancreatic (BxPC3, COLO357) cancer cell lines, using the dye 3-[4,5 dimethylthiazol-2-yl]-2,5 diphenyltetrazolium bromide (MTT assay) according to a method described in Banerjee, et al., Cancer Research, Vol. 62, page 4945 (2002).
More specifically, the tumor cell lines MCF-7, MDA-MB 231 and COLO 357 were maintained in Dulbecco's modifed Eagle's medium (DMEM) with phenol red. Cell lines T47D, BT20, PC3 and BxPC3 were routinely cultured in RPMI medium, each medium being supplemented with Penicillin (50 U/ml), Streptomycin (50 μg/ml) and 10% fetal calf serum (FCS) (Gibco, Myclone). The cell lines were cultured in a humidified incubator in an atmosphere of 5% CO2 and were maintained in continuous exponential growth by twice a week passage.
Adherent cells at a logarithmic phase were detached by addition of 2-3 ml of trypsin (Gibco), 0.02% EDTA mixture and incubation at 37° C. Cells were plated (100 μL per well) in 48 well flat bottom microtiter plates at densities of 2000 to 5000 per cm^2 (MCF-7, […], T47D, BT20, PC3, BxPC3, COLO357) cells per well. Cells were incubated for 24 h at 37° C. to resume exponential growth. […] Cell proliferation was evaluated after 72h by means of MTT assay.

Series [2] concerns Colo357, BxPC3, BT20, and PC3 cells. Kind of series: Cell Death Detection ELISA apoptosis assay. It is filed as cell-based. The following applies: FIG. 15, among FPA-124, FPA-125, FPA-127. As to the method: To determine whether the metal conjugates induce apoptosis in tumor cells, quantitative evaluation of apoptosis was carried out with a Cell Death Detection ELISA kit (Roche, Palo Alto, Calif.). Apoptosis was detected according to the protocol supplied by the manufacturer.
Since all copper compounds are redox active metal conjugates, we believe that redox triggered oxidative stress may be one of the underlying mechanisms for the observed apoptotic cell death in the present case. […] This observation is also in accordance with the favorable distortion factor calculated for the present copper compounds using EPR spectra, which factor helps stabilize cuprous and cupric species without dissociation of the conjugate.

The test system of series [3] is NF-κB. Kind of series: EMSA of NF-κB in tumor tissue of orthotopic pancreatic model. It is filed as in vivo, mice. As to the method: The redox sensitive transcription factor NF-κB, is downstream of the Akt kinase protein and plays major role in the cell proliferation and metastasis and resistance in major cancers such as breast, prostate and pancreatic. […] Nuclear proteins were extracted from the tumor tissue as described previously (see, for example, Banerjee, et al., Cancer Research, Vo. 65, p. 9064 (2005)) and kept at −70° C. until use. Protein concentration was determined using the bicinchonic acid assay kit with BSA as the standard (Pierce Chemical Co., Rockford, Ill.). The incubation mixture included 25 mM DTT and 2.5% Tween 20 in a binding buffer. The DNA-protein complex formed was separated from free oligonucleotide on 8.0% native polyacralyamide gel using buffer containing 50 mM Tris, 200 mm glycine, pH 8.5, and 1 mM EDTA, and then visualized by Odyssey Infrared Imaging System using Odyssey Software Release 1.1.
However, there were significant differences in the pattern of necrosis, inflammatory response and fibrosis among these two groups. […] The viable tumor cells form large nests or sheets with minimal stromal fibrosis and inflammatory infiltrates. […] Only 20% of the mass was viable. The viable neoplastic cells form small nests of clusters associated with extensive stromal fibrosis and inflammatory infiltrates (See, FIG. 10c). […]

Series [4] concerns COLO 357 cells. The experiment in a line: Orthotopic pancreatic tumor model. It is filed as in vivo.
Excerpt: Since the NF-κB pathway is regulated by Akt protein, the effects of the FPA-124 on NF-κB activity was studied in an in vivo experiment, specifically the well-established orthotopic pancreatic tumor model using COLO 357 cells.
Series [5] relates to vascular endothelial growth factor (VEGF) in BxPC3 cells. Kind of series: In vitro expression of VEGF (ELISA). It is filed as cell-based, human. Conditions: 10 μM, 20 μM, 72 h. As to the method:
BxPC3 cells (0.1×10^6/well) were plated into 6-well plates and incubated in supplemented RPMI containing 10% FBS.

The subject of series [6] is Akt, p-Akt and PARP in PC3 cells. The experiment in a line: Western blot of Akt, p-Akt and PARP. It is filed as cell-based, human. Conditions: 10 and 20 μM, 72 h. As to the method: Control cells were incubated in the medium with Na2CO3 using same time point. After incubation the cells were lysed with This-HCl (62.5 mm) and 2% SDS. Protein concentration was then measured using […] protein assay (Pierce Chemical Co., Rockford, Ill.). Cell extracts were subjected to 10% SDS-PAGE and electrophoretically transferred to nitrocellulose membrane. Membranes were then incubated with monoclonal anti-Akt (epitome: amino acids 345-480 of Akt1, 1:500; Ontogeny, 26. San Diego, Calif.), anti-phosphor-Akt Ser473 (1:1000; Cell Signaling, Beverly, Mass.), primary monoclonal anti-PARP antibody (1:5000; Biomol, Plymouth Meeting, Pa.) and anti-β-actin (1:5000; Sigma) antibodies, washed with TTBS, and incubated with secondary antibody conjugated with peroxidase. The signal was then detected using the chemiluminescent detection system (Pierce, Rockford, Ill.).

Series [7] has as its system tumor cells. The experiment in a line: Incubation with copper conjugate at IC50 concentration, viability and apoptosis (data not shown). It is filed as cell-based.
The test system of series [8] is breast cancer cell line (T47D). Kind of series: Propidium iodide / Hoechst 33342 fluorescence microscopy for apoptosis. It is filed as cell-based. As to the method: To provide further evidence of apoptosis, we carried out […] using a mixture of propidium iodide (PI) and Hoechst dye 33342 to determine the integrity of cell membranes of cancer cells. The quantification of the apoptosis was carried out by cell count after staining with PI followed by visualization of treated cells by fluorescence analysis. The fluorescent dyes PI and Hoechst 33342 were added to the cell culture medium after treatment with the test compounds (10 μM) for 48 h at a final concentrations of 10 μg/ml (PI dye) and Hoechst 33342 (1 μg/ml), respectively. After 5 minutes at 37° C. the cells were placed under a fluorescence microscope (Nikon Optiphot) with a filter block giving excitation at 380 nm and 480 nm.

The subject of series [9] is BT20, PC3, Colo357 and BxPC3 cancer cell lines. The experiment in a line: MTT cell proliferation assay, four cell lines. The following applies: text b152; read-out: IC50 values in multiple cancer cell lines. It is filed as cell-based. As to the method:
as §1
Adherent cells at a logarithmic phase were detached by addition of 2-3 ml of trypsin (Gibco), 0.02% EDTA mixture and incubation at 37° C. Cells were plated (100 μL per well) in 48 well flat bottom microtiter plates at densities of 2000 to 5000 per cm^2 (MCF-7, […], T47D, BT20, PC3, BxPC3, COLO357) cells per well. Cells were incubated for 24 h at 37° C. to resume exponential growth. The test compounds were dissolved in DMSO (final concentration 0.1%) and added to the cells 24 h after seeding at varying concentrations. Control wells containing the culture medium, were included in each experiment. Cell proliferation was evaluated after 72h by means of MTT assay.
The biological effects of these compounds were studied against the hormone independent breast (BT20) and prostate (PC3) cancers as well as K-ras positive (Colo357) and K-ras negative (BxPC3) pancreatic cancer cell lines.

The mark [10] stands for this setting: FPA-102 25 mg/kg i.v. on alternate days.

As for `CC(=O)C1CCC2C3CCC4=CC(=NNC(N)=S)CCC4(C)C3CCC12C` (centres unmarked) [FPA-101, 17-acetyl-10,13-dimethyl-1,2,6,7,8,9,11,12,13,14,15,16,17-tetradecahydrocyclopenta[a]phenanthren-3-thiosemicarbazone], the “antiproliferative action against the cell lines tested” value in [1] is recorded as “moderate antiproliferative action”.

For `NC1=[S+][Cu-2]([Cl])([Cl])[N+](=Cc2coc3ccccc3c2=O)N1` [FPA-124], in [2], the “apoptosis by ELISA, ranking” value was “most active compound”. Moreover, the “NF-κB activity in the tumor tissue (EMSA)” value in [3] (FPA-124, FIG. 17c) was “significantly decreased”. Further, in series [4] (FPA-124, FIG. 17a), the “body weight of the treated animals (toxicity)” value is on record as “no change in the body weight”. Besides, the tumor load result in series [4] (FPA-124, FIG. 17b) is “decrease in the tumor load”.

As for `CC(=O)C1CCC2C3CCC4=CC(=NNC(N)=S)CCC4(C)C3CCC12C.[Cl][Cu][Cl]` (centres unmarked) [FPA-102], the VEGF levels result in series [5] is recorded as “decrease in the VEGF levels”. For the same molecule, the “NF-κB in the tumor tissue (EMSA)” value in series [3] (treatment for 10 days once every alternate day) is “down-regulation of NF-κB”. Besides, in series [6], the “PARP degradation / cleavage” value is on record as “induces poly (ADP-ribose) polymerase degradation” and the phosphor-Akt level result was “down regulates”. The apoptotic cells in [7] (24-48 h treatment at IC50 concentration) is on record as ~95%. The non-viable cells in [7] (3 h incubation at IC50 concentration) is reported as 40%. Further, in series [4] (setting [10]), the “body weight of treated mice (toxicity)” value is listed as “no significant change in the body weight” and the tumor burden result is on record as “decrease tumor burden”. For the same molecule, the “viable part of tumor mass” value in series [4] (tumor histology of treated mice) worked out at 20%. Besides, the “cell morphology after PI/Hoechst staining” value in [8] (IC50 concentration (10 μM), FIG. 7b) was “nuclear condensation and membrane damage”. The “potency of inducing apoptosis among the metal conjugates” value in series [8] (comparison within series FPA-102 to FPA-104) is listed as “highest potency of inducing apoptosis”.

For `O=c1c(-c2ccc(O)cc2)coc2cc(O)cc(O)c12` [Genistein, 4,5,7,-trihydroxyisoflavone], in [9], the IC50 is > 40 µM.
